# Measured values from ChEMBL document CHEMBL3271942, “(Vinylaryloxy)acetic acids. A new class of diuretic agents. 2. (4-(3-Oxo-1-alkenyl)phenoxy)acetic acids” (1976).
# Tests used:
# Canis familiaris [1] = assay: Diuretic activity in mongrel dog assessed as excretion of sodium ion at 10 mg/kg, iv measured after 15 and 45 mins (reference value: 13 to 54 uequiv/min); assay type: functional, Canis lupus familiaris, Urine
# Canis familiaris [2] = assay: Diuretic activity in mongrel dog assessed as excretion of potassium ion at 10 mg/kg, iv measured after 15 and 45 mins (reference value: 16 to 37 uequiv/min); assay type: functional, Canis lupus familiaris, Urine
# Canis familiaris [3] = assay: Diuretic activity in mongrel dog assessed as excretion of chloride ion at 10 mg/kg, iv measured after 15 and 45 mins (reference value: 4 to 64 uequiv/min); assay type: functional, Canis lupus familiaris, Urine
# Canis familiaris [4] = assay: Diuretic activity in mongrel dog assessed as urine volume at 10 mg/kg, iv measured after 15 and 45 mins (reference value: 1 to 2 ml/min); assay type: functional, Canis lupus familiaris
# Canis familiaris [5] = assay: Diuretic activity in mongrel dog assessed as excretion of sodium ion at 5 mg/kg, iv measured after 15 and 45 mins (reference value: 5 to 99 uequiv/min); assay type: functional, Canis lupus familiaris, Urine
# Canis familiaris [6] = assay: Diuretic activity in mongrel dog assessed as excretion of potassium ion at 5 mg/kg, iv measured after 15 and 45 mins (reference value: 15 to 55 uequiv/min); assay type: functional, Canis lupus familiaris, Urine
# Canis familiaris [7] = assay: Diuretic activity in mongrel dog assessed as excretion of chloride ion at 5 mg/kg, iv measured after 15 and 45 mins (reference value: 7 to 13 uequiv/min); assay type: functional, Canis lupus familiaris, Urine
# Canis familiaris [8] = assay: Diuretic activity in mongrel dog assessed as urine volume at 5 mg/kg, iv measured after 15 and 45 mins (reference value: 1 to 2 ml/min); assay type: functional, Canis lupus familiaris
# Canis familiaris [9] = assay: Diuretic activity in mongrel dog assessed as excretion of sodium ion at 0.1 mg/kg, iv measured after 15 and 45 mins (reference value: 36 to 73 uequiv/min); assay type: functional, Canis lupus familiaris, Urine
# Canis familiaris [10] = assay: Diuretic activity in mongrel dog assessed as excretion of potassium ion at 0.1 mg/kg, iv measured after 15 and 45 mins (reference value: 14 to 35 uequiv/min); assay type: functional, Canis lupus familiaris, Urine
# Canis familiaris [11] = assay: Diuretic activity in mongrel dog assessed as excretion of chloride ion at 0.1 mg/kg, iv measured after 15 and 45 mins (reference value: 14 to 48 uequiv/min); assay type: functional, Canis lupus familiaris, Urine
# Canis familiaris [12] = assay: Diuretic activity in mongrel dog assessed as urine volume at 0.1 mg/kg, iv measured after 15 and 45 mins (reference value: 1 to 3 ml/min); assay type: functional, Canis lupus familiaris
# Canis familiaris [13] = assay: Diuretic activity in mongrel dog assessed as excretion of sodium ion at 1 mg/kg, iv measured after 15 and 45 mins (reference value: 26 to 58 uequiv/min); assay type: functional, Canis lupus familiaris, Urine
# Canis familiaris [14] = assay: Diuretic activity in mongrel dog assessed as excretion of potassium ion at 1 mg/kg, iv measured after 15 and 45 mins (reference value: 46 to 28 uequiv/min); assay type: functional, Canis lupus familiaris, Urine
# Canis familiaris [15] = assay: Diuretic activity in mongrel dog assessed as excretion of chloride ion at 1 mg/kg, iv measured after 15 and 45 mins (reference value: 10 to 26 uequiv/min); assay type: functional, Canis lupus familiaris, Urine
# Canis familiaris [16] = assay: Diuretic activity in mongrel dog assessed as urine volume at 1 mg/kg, iv measured after 15 and 45 mins (reference value: 1 to 4 ml/min); assay type: functional, Canis lupus familiaris
# Canis familiaris [17] = assay: Diuretic activity in mongrel dog assessed as excretion of sodium ion per 6 hrs at 2 mg/kg, po (reference value: 2 mequiv/min); assay type: functional, Canis lupus familiaris, Urine
# Canis familiaris [18] = assay: Diuretic activity in mongrel dog assessed as excretion of sodium ion per 6 hrs at 1 mg/kg, po (reference value: 2 mequiv/min); assay type: functional, Canis lupus familiaris, Urine
# Canis familiaris [19] = assay: Diuretic activity in mongrel dog assessed as excretion of potassium ion per 6 hrs at 2 mg/kg, po (reference value: 1 mequiv/min); assay type: functional, Canis lupus familiaris, Urine
# Canis familiaris [20] = assay: Diuretic activity in mongrel dog assessed as excretion of potassium ion per 6 hrs at 1 mg/kg, po (reference value: 1 mequiv/min); assay type: functional, Canis lupus familiaris, Urine
# Canis familiaris [21] = assay: Diuretic activity in mongrel dog assessed as excretion of chloride ion per 6 hrs at 2 mg/kg, po (reference value: 2 mequiv/min); assay type: functional, Canis lupus familiaris, Urine
# Canis familiaris [22] = assay: Diuretic activity in mongrel dog assessed as excretion of chloride ion per 6 hrs at 1 mg/kg, po (reference value: 2 mequiv/min); assay type: functional, Canis lupus familiaris, Urine
# Canis familiaris [23] = assay: Diuretic activity in mongrel dog assessed as urine volume per 6 hrs at 2 mg/kg, po (reference value: 180 ml); assay type: functional, Canis lupus familiaris
# Canis familiaris [24] = assay: Diuretic activity in mongrel dog assessed as urine volume per 6 hrs at 1 mg/kg, po (reference value: 180 ml); assay type: functional, Canis lupus familiaris
# Canis familiaris [25] = assay: Diuretic activity in mongrel dog assessed as excretion of sodium ion at 25 mg/kg, iv measured after 15 and 45 mins (reference value: 42 uequiv/min); assay type: functional, Canis lupus familiaris, Urine
# Canis familiaris [26] = assay: Diuretic activity in mongrel dog assessed as excretion of potassium ion at 25 mg/kg, iv measured after 15 and 45 mins (reference value: 42 uequiv/min); assay type: functional, Canis lupus familiaris, Urine
# Canis familiaris [27] = assay: Diuretic activity in mongrel dog assessed as excretion of chloride ion at 25 mg/kg, iv measured after 15 and 45 mins (reference value: 6 uequiv/min); assay type: functional, Canis lupus familiaris, Urine
# Canis familiaris [28] = assay: Diuretic activity in mongrel dog assessed as urine volume at 25 mg/kg, iv measured after 15 and 45 mins (reference value: 5 ml/min); assay type: functional, Canis lupus familiaris
Compound,Activity (Canis familiaris [1]) [uEq/min],Activity (Canis familiaris [2]) [uEq/min],Activity (Canis familiaris [3]) [uEq/min],Activity (Canis familiaris [4]) [mL/min],Activity (Canis familiaris [5]) [uEq/min],Activity (Canis familiaris [6]) [uEq/min],Activity (Canis familiaris [7]) [uEq/min],Activity (Canis familiaris [8]) [mL/min],other results
CC(=O)/C=C/c1ccc(OCC(=O)O)cc1,91,50,55,5,,,,,
CC(=O)/C=C/c1ccc(OCC(=O)O)c(Cl)c1Cl,,,,,911,76,1078,8,
COc1cc(/C=C/C(C)=O)ccc1OCC(=O)O,,,,,13,36,27,1,
O=C(O)COc1ccc(/C=C2\CCC2=O)c(Cl)c1Cl,833,93,822,8,,,,,Activity (Canis familiaris [9]): 393 uEq/min; Activity (Canis familiaris [10]): 89 uEq/min; Activity (Canis familiaris [11]): 408 uEq/min; Activity (Canis familiaris [12]): 9 mL/min
O=C(O)COc1ccc(/C=C2\CCCC2=O)c(Cl)c1Cl,,,,,,,,,Activity (Canis familiaris [13]): 298 uEq/min; Activity (Canis familiaris [14]): 74 uEq/min; Activity (Canis familiaris [15]): 330 uEq/min; Activity (Canis familiaris [16]): 4 mL/min
CC(=O)/C(C)=C/c1ccc(OCC(=O)O)c(Cl)c1Cl,,,,,1096,132,1140,10,Activity (Canis familiaris [17]): 16 milliequivalent; Activity (Canis familiaris [18]): 9 milliequivalent; Activity (Canis familiaris [19]): 3 milliequivalent; Activity (Canis familiaris [20]): 5 milliequivalent; Activity (Canis familiaris [21]): 21 milliequivalent; Activity (Canis familiaris [22]): 9 milliequivalent; Activity (Canis familiaris [23]): 506 mL; Activity (Canis familiaris [24]): 422 mL
CCC(=O)/C(C)=C/c1ccc(OCC(=O)O)c(Cl)c1Cl,79,42,67,2,,,,,
CC(=O)/C=C/c1ccc(OCC(=O)O)cc1Cl,265,79,258,3,,,,,
CCC(=O)/C=C/c1ccc(OCC(=O)O)c(Cl)c1Cl,973,118,1089,8,,,,,
C/C(C=O)=C\c1ccc(OCC(=O)O)c(Cl)c1Cl,,,,,140,51,130,3,Activity (Canis familiaris [25]): 449 uEq/min; Activity (Canis familiaris [26]): 86 uEq/min; Activity (Canis familiaris [27]): 542 uEq/min; Activity (Canis familiaris [28]): 5 mL/min
O=C(O)COc1ccc(/C=C2\CCCCC2=O)c(Cl)c1Cl,,,,,1306,119,1340,12,
CC(=O)C(=Cc1ccc(OCC(=O)O)c(Cl)c1Cl)C(C)=O,,,,,,,,,Activity (Canis familiaris [9]): 984 uEq/min; Activity (Canis familiaris [10]): 87 uEq/min; Activity (Canis familiaris [14]): 104 uEq/min; Activity (Canis familiaris [12]): 9 mL/min; Activity (Canis familiaris [16]): 11 mL/min
C=C(CC)C(=O)c1ccc(OCC(=O)O)c(Cl)c1Cl [ETHACRYNIC ACID],2989,194,3324,22,,,,,Activity (Canis familiaris [13]): 188 uEq/min; Activity (Canis familiaris [14]): 52 uEq/min; Activity (Canis familiaris [15]): 244 uEq/min; Activity (Canis familiaris [16]): 6 mL/min; Activity (Canis familiaris [18]): 21 milliequivalent; Activity (Canis familiaris [20]): 5 milliequivalent; Activity (Canis familiaris [22]): 26 milliequivalent; Activity (Canis familiaris [24]): 560 mL
NS(=O)(=O)c1cc(C(=O)O)c(NCc2ccco2)cc1Cl [FUROSEMIDE],,,,,,,,,Activity (Canis familiaris [18]): 19 milliequivalent; Activity (Canis familiaris [20]): 4 milliequivalent; Activity (Canis familiaris [22]): 18 milliequivalent; Activity (Canis familiaris [24]): 624 mL
